In article PMC4965013, “Open Source Drug Discovery with the Malaria Box Compound Collection for Neglected Diseases and Beyond” (PLoS Pathogens, 2016):

Tests used:
[1] = system: Saccharomyces cerevisiae strain WC081; test: Yeast disc diffusion in combination with artemisinin; assay type: cell-based; conditions: 10 µL of 1 mM on disc, 0.2 µM artemisinin, read-out: larger zone size with artemisinin (SCG+artemisinin minus SCG)
Description: Yeast screening for enhanced drug effects in combination with artemisinin, Jensen group (data presented first in this paper). […] Yeast (S. cerevisiae) was used as a proxy for P. falciparum, because the killing of S. cerevisiae and P. falciparum appear to have similarities. Saccharomyces cerevisiae strain WC081 (Mat a, leu2∆0, lys2∆0, ura3∆0, his3∆1, pdr1∆::HIS3, pdr3∆::kanMX4) was utilized and was originally derived from strain BY4742. Regulators of Multi-drug resistance transporters have been deleted from this strain to enhance the toxicity of compounds. Assay utilized the disc diffusion method with the observance of a clear zone indicating inhibition of growth. Synthetic complete medium containing 3% glycerol as a carbon source (SCG) was used in each assay. 10 µL of each compound at 1 mM was added to a paper disc which was placed on SCG and SCG^+artemisinin (0.2 µM) plates seeded with 10e6 yeast cells. Plates were incubated at 30 °C for 5 days and clear zones were measured. Compounds that produced a larger clear zone in the presence of artemisinin were considered to have an additive interaction with artemisinin. Results are reported as diameter of clear zone on SCG^+artemisinin plates - diameter of clear zone on SCG plates without artemisinin.

[2] = system: P. falciparum 3D7 trophozoites; test: Metabolomic fingerprint profiling LC-MS; assay type: cell-based, Plasmodium falciparum; set-up: UDP-D-glucose / ADP-D-glucose: unit not given here; conditions: for Acetyllysine / N-acetyl-L-ornithine / N-carbamoyl-L-aspartate / NADPH / dAMP / dCMP / dTDP / dTMP / dTTP / dihydroorotate / orotate / DLH / DLS/SDL/SID / PD / PEE / PVNF / 3-phosphoglycerate / ADP-D-glucose / ATP / CDP / D-sedoheptulose-1/7-phosphate / FAD / GMP / NAD+ / NADP+ / Octoluse Bisphosphate / Pyroglutamic acid / UDP-D-glucose / UDP-D-glucuronate / UDP-N-acetyl-glucosamine / UDP / UMP / UTP / a-ketoglutarate / citrate/isocitrate / cytidine / dATP / dGMP/AMP / fumarate / glucose-1/6-phosphate / glycerate / guanine / guanosine / hypoxanthine / indole / inosine / nicotinate / ornithine / phosphoenolpyruvate / pyruvate / ribose-phosphate / sarcosine/alanine / sn-glycerol-3-phosphate / succinate/methylmalonic acid / uridine / xanthosine: S2 Table Metabolomics; for Acetyllysine: metabolite Acetyllysine; for N-acetyl-L-ornithine: metabolite N-acetyl-L-ornithine; for N-carbamoyl-L-aspartate: metabolite N-carbamoyl-L-aspartate; for NADPH: metabolite NADPH; for dAMP: metabolite dAMP; for dCMP: metabolite dCMP; for dTDP: metabolite dTDP; for dTMP: metabolite dTMP; for dTTP: metabolite dTTP; for dihydroorotate: metabolite dihydroorotate; for orotate: metabolite orotate; for DLH: peptide DLH; for DLS/SDL/SID: peptide DLS/SDL/SID; for PD: peptide PD; for PEE: peptide PEE; for PVNF: peptide PVNF; for 3-phosphoglycerate: metabolite 3-phosphoglycerate; for ADP-D-glucose: metabolite ADP-D-glucose; for ATP: metabolite ATP; for CDP: metabolite CDP; for CDP / D-sedoheptulose-1/7-phosphate / GMP / Octoluse Bisphosphate / UDP / UMP / UTP / citrate/isocitrate / dGMP/AMP / fumarate / glucose-1/6-phosphate / glycerate / guanine / guanosine / inosine / pyruvate / sarcosine/alanine / succinate/methylmalonic acid / uridine / xanthosine: change in metabolite level after compound treatment; for D-sedoheptulose-1/7-phosphate: metabolite D-sedoheptulose-1/7-phosphate; for FAD: metabolite FAD; for GMP: metabolite GMP; for NAD+: metabolite NAD+; for NADP+: metabolite NADP+; for Octoluse Bisphosphate: metabolite Octoluse Bisphosphate; for Pyroglutamic acid: metabolite Pyroglutamic acid; for UDP-D-glucose: metabolite UDP-D-glucose; for UDP-D-glucuronate: metabolite UDP-D-glucuronate; for UDP-N-acetyl-glucosamine: metabolite UDP-N-acetyl-glucosamine; for UDP: metabolite UDP; for UMP: metabolite UMP; for UTP: metabolite UTP; for a-ketoglutarate: metabolite a-ketoglutarate; for citrate/isocitrate: metabolite citrate/isocitrate; for cytidine: metabolite cytidine; for dATP: metabolite dATP; for dGMP/AMP: metabolite dGMP/AMP; for fumarate: metabolite fumarate; for glucose-1/6-phosphate: metabolite glucose-1/6-phosphate; for glycerate: metabolite glycerate; for guanine: metabolite guanine; for guanosine: metabolite guanosine; for hypoxanthine: metabolite hypoxanthine; for indole: metabolite indole; for inosine: metabolite inosine; for 2_3-Diphosphoglyceric acid / 4-phosphopantothenate / 6-phospho-D-gluconate / FMN / IMP / Pyrophosphate / Sedoheptoluse bisphosphate / cyclic-AMP / glutathione disulfide / lactate / myo-inositol: metabolite level change after treatment; for nicotinate: metabolite nicotinate; for ornithine: metabolite ornithine; for phosphoenolpyruvate: metabolite phosphoenolpyruvate; for pyruvate: metabolite pyruvate; for ribose-phosphate: metabolite ribose-phosphate; for sarcosine/alanine: metabolite sarcosine/alanine; for sn-glycerol-3-phosphate: metabolite sn-glycerol-3-phosphate; for succinate/methylmalonic acid: metabolite succinate/methylmalonic acid; for uridine: metabolite uridine; for xanthosine: metabolite xanthosine
P. falciparum = test: EC50 listed in S2 Table Metabolomics (used to set the concentration tested); assay type: cell-based; conditions: Plasmodium falciparum; EC50 used for Factor_XEC50 in metabolomics; read-out: EC50_nM
Atg8-Atg3 = system: Atg8-Atg3; set-up: method as in ref [38] (a number printed in a supplementary file, which may have a reference list of its own: not looked up in the article's list); conditions: ref [38]; cited from earlier work

Cc1cc(Nc2ccc3ccccc3c2)n2ncnc2n1 [MMV011099]
zone of inhibition at 1000 µM [1]: 7 mm | Acetyllysine [2]: 0.02852 | N-acetyl-L-ornithine [2]: 0.1505 | N-carbamoyl-L-aspartate [2]: 3.868 | NADPH [2]: 1.182 | dAMP [2]: -0.08024 | dCMP [2]: -0.5906 | dTDP [2]: -1.017 | dTMP [2]: -0.9279 | dTTP [2]: -1.156 | dihydroorotate [2]: 4.157 | orotate [2]: -1.974 | DLH [2]: 0.4532 | DLS/SDL/SID [2]: 0.4641 | PD [2]: 0.1181 | PEE [2]: 0.2947 | PVNF [2]: 0.2329 | 3-phosphoglycerate [2]: -0.2056 | ADP-D-glucose [2]: 0.1525 | ATP [2]: 0.2332 | CDP [2]: -0.709 | D-sedoheptulose-1/7-phosphate [2]: 0.01889 | FAD [2]: 0.08024 | GMP [2]: 0.02967 | NAD+ [2]: -0.0008425 | NADP+ [2]: 0.1353 | Octoluse Bisphosphate [2]: 0.08614 | Pyroglutamic acid [2]: -0.4752 | UDP-D-glucose [2]: 0.067 | UDP-D-glucuronate [2]: -0.02366 | UDP-N-acetyl-glucosamine [2]: -0.1127 | UDP [2]: -1.3628 | UMP [2]: -1.675 | UTP [2]: -1.64 | a-ketoglutarate [2]: -1.062 | citrate/isocitrate [2]: -1.28 | cytidine [2]: 0.7717 | dATP [2]: 0.5433 | dGMP/AMP [2]: -0.03244 | fumarate [2]: -1.091 | glucose-1/6-phosphate [2]: 0.2093 | glycerate [2]: -1.246 | guanine [2]: -0.547 | guanosine [2]: -1.524 | hypoxanthine [2]: 0.001118 | indole [2]: 0.03287 | inosine [2]: -0.4013 | 2_3-Diphosphoglyceric acid [2]: -0.01924 | 4-phosphopantothenate [2]: -0.6208 | 6-phospho-D-gluconate [2]: 0.1135 | FMN [2]: -0.06047 | IMP [2]: -0.0451 | Pyrophosphate [2]: 0.1187 | Sedoheptoluse bisphosphate [2]: -0.1999 | cyclic-AMP [2]: -0.1393 | glutathione disulfide [2]: -0.2357 | lactate [2]: -0.8843 | myo-inositol [2]: -1.14 | nicotinate [2]: -1.365 | ornithine [2]: 0.02843 | phosphoenolpyruvate [2]: -0.5081 | pyruvate [2]: -1.9111 | ribose-phosphate [2]: 0.184 | sarcosine/alanine [2]: -0.4398 | sn-glycerol-3-phosphate [2]: -0.3081 | succinate/methylmalonic acid [2]: -0.5239 | uridine [2]: -1.376 | xanthosine [2]: -0.974 | EC50 (P. falciparum): 242 nM

CSc1ccccc1C(=O)Nc1nc(-c2ccccn2)cs1 [MMV001246]
zone of inhibition at 1000 µM [1]: 3 mm | Acetyllysine [2]: 0.4532 | N-acetyl-L-ornithine [2]: 0.4087 | N-carbamoyl-L-aspartate [2]: 0.8167 | NADPH [2]: -0.6152 | dAMP [2]: 0.5623 | dCMP [2]: 1.316 | dTDP [2]: 1.003 | dTMP [2]: 1.155 | dTTP [2]: 0.605 | dihydroorotate [2]: 0.8484 | orotate [2]: -0.04882 | DLH [2]: -0.1638 | DLS/SDL/SID [2]: -0.1191 | PD [2]: 1.085 | PEE [2]: 0.2734 | PVNF [2]: -0.2587 | 3-phosphoglycerate [2]: -0.3067 | ADP-D-glucose [2]: 0.2637 | ATP [2]: -0.316 | CDP [2]: 1.161 | D-sedoheptulose-1/7-phosphate [2]: 0.9582 | FAD [2]: -0.06449 | GMP [2]: -0.2602 | NAD+ [2]: 0.05063 | NADP+ [2]: 0.1259 | Octoluse Bisphosphate [2]: -0.02993 | Pyroglutamic acid [2]: -0.6363 | UDP-D-glucose [2]: 0.1597 | UDP-D-glucuronate [2]: 0.09079 | UDP-N-acetyl-glucosamine [2]: 0.2113 | UDP [2]: 1.27 | UMP [2]: -0.2249 | UTP [2]: 0.2071 | a-ketoglutarate [2]: -0.3343 | citrate/isocitrate [2]: 0.6139 | cytidine [2]: -0.1132 | dATP [2]: -0.2342 | dGMP/AMP [2]: 0.5523 | fumarate [2]: 0.07419 | glucose-1/6-phosphate [2]: 0.3611 | glycerate [2]: -0.4138 | guanine [2]: 0.2842 | guanosine [2]: 0.03562 | hypoxanthine [2]: -0.2148 | indole [2]: -0.09781 | inosine [2]: -0.005486 | 2_3-Diphosphoglyceric acid [2]: 0.509 | 4-phosphopantothenate [2]: 0.08862 | 6-phospho-D-gluconate [2]: 0.2643 | FMN [2]: 0.1616 | IMP [2]: 0.3566 | Pyrophosphate [2]: 0.4487 | Sedoheptoluse bisphosphate [2]: -0.09548 | cyclic-AMP [2]: -0.2042 | glutathione disulfide [2]: 0.1188 | lactate [2]: -0.259 | myo-inositol [2]: -0.2589 | nicotinate [2]: -0.09283 | ornithine [2]: 0.2998 | phosphoenolpyruvate [2]: -0.3081 | pyruvate [2]: -0.1972 | ribose-phosphate [2]: -0.4595 | sarcosine/alanine [2]: 0.1583 | sn-glycerol-3-phosphate [2]: -0.08199 | succinate/methylmalonic acid [2]: 0.009107 | uridine [2]: 0.08525 | xanthosine [2]: -0.2265 | EC50 (P. falciparum): 206 nM | PPI inhibitors of Atg8-Atg3 interaction (Atg8-Atg3): PPI inhibitors
